Reference: patent US11518758B2, “Heteroarylaminopyrimidine amide autophagy inhibitors and methods of use thereof” (Deciphera Pharmaceuticals, LLC, priority 2019, dated 2022)
pIC50: −log10 of the molar value.

Columns and labels:
[1] = target: T1, ULK1 kinase (Homo sapiens, UniProt O75385); assay: Biochemical assay for ULK1.2 (coupled pyruvate kinase/lactate dehydrogenase assay); details: 19 nM ULK1 (Eurofins), myelin basic protein, 1 mM ATP
T1 construct: purchased Eurofins 14-959
T1 sequence (O75385 with tags, fused parts or gaps): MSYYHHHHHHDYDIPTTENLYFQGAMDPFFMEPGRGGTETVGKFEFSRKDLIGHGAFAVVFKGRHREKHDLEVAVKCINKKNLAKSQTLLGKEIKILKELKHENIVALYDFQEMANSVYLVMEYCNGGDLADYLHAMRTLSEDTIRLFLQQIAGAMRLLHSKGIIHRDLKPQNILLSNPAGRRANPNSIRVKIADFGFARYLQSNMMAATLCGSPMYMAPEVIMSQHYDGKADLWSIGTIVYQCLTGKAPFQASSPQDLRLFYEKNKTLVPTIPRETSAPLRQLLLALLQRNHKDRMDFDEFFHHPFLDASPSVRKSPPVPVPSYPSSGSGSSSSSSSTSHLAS
Description: Example 174. Biochemical Assay for ULK1.2
Activity of ULK1 kinase was determined spectroscopically using a coupled pyruvate kinase/lactate dehydrogenase assay that continuously monitors the ATP hydrolysis-dependent oxidation of NADH (e.g., Schindler et al. Science (2000) 289: 1938-1942). Assays were conducted in 384-well plates (100 uL final volume) using 19 nM ULK1 (Eurofins CAT #14-959), 0.25 mg/mL myelin basic protein, 1.5 units pyruvate kinase, 2.1 units lactate dehydrogenase, 1 mM phosphoenol pyruvate, 0.28 mM NADH and 1 mM ATP in assay buffer (100 mM Tris, pH 7.5, 15 mM MgCl2, 0.5 mM DTT, 0.1% octyl-glucoside, 0.002% (w/v) BSA, and 0.002% Triton X-100). Inhibition of ULK1 was measured by adding serial diluted test compound (final assay concentration of 1% DMSO). A decrease in absorption at 340 nm was monitored continuously for 6 hours at 30° C. on a multi-mode microplate reader (BioTek). The reaction rate was calculated using the 2-3 h time frame. The reaction rate at each concentration of compound was converted to percent inhibition using controls (i.e. reaction with no test compound and reaction with a known inhibitor) and IC50 values were calculated by fitting a four-parameter sigmoidal curve to the data using Prism (GraphPad software).

[2] = target: T2, LRRK2 kinase (Homo sapiens, UniProt Q5S007); assay: Biochemical assay for LRRK2 (coupled pyruvate kinase/lactate dehydrogenase assay); details: 26.4 nM LRRK2 (residues 970-2528), 0.1 mM peptide substrate, 1 mM ATP
T2 construct: purchased Thermo Fisher
Description: Example 182. Biochemical Assay for LRRK2 (SEQ. ID NO. 4)
Activity of LRRK2 kinase was determined spectroscopically using a coupled pyruvate kinase/lactate dehydrogenase assay that continuously monitors the ATP hydrolysis-dependent oxidation of NADH (e.g., Schindler et al. Science (2000) 289: 1938-1942). Assays were conducted in 384-well plates (100 uL final volume) using 26.4 nM LRRK2 (Thermo Fisher), 0.1 mM peptide substrate (RLGRDKYKTLRQIRQ (SEQ ID NO: 6)), 1.5 units pyruvate kinase, 2.1 units lactate dehydrogenase, 1 mM phosphoenol pyruvate, 0.28 mM NADH and 1 mM ATP in assay buffer (100 mM Tris, pH 7.5, 15 mM MgCl2, 0.5 mM DTT, 0.004% (w/v) BSA, and 0.004% Triton X-100). Inhibition of LRRK2 was measured by adding serial diluted test compound (final assay concentration of 1% DMSO). A decrease in absorption at 340 nm was monitored continuously for 6 hours at 30° C. on a multi-mode microplate reader (BioTek). The reaction rate was calculated using the 2-3 h time frame. The reaction rate at each concentration of compound was converted to percent inhibition using controls (i.e. reaction with no test compound and reaction with a known inhibitor) and IC50 values were calculated using software routines in Prism (GraphPad software).

[3] = test system: phospho-Serine 318 ATG13 (pATG13), ULK kinase substrate, in A549 (KRAS mutant) cells; assay: pATG13 levels of mutant KRas A549 cells after treatment with ULK inhibitors in combination with trametinib (ELISA); assay type: cell-based, human; details: with 250 nM trametinib
Description: Example 177. Cellular Inhibition of ULK Kinase Substrate ATG13 Protein pATG13 Levels of Mutant KRas A549 Cells after Treatment with ULK Inhibitors in Combination with Trametinib
A549 (KRAS mutant) human lung cancer cells (6,000 cells/well) were added to a 384-well tissue-culture treated plate in 50 μL of pre-warmed DMEM medium supplemented with 10% characterized fetal bovine serum (Invitrogen, Carlsbad, Calif.), 100 units/mL penicillin G, and 100 μg/mL streptomycin and allowed to grow overnight at 37° C., 5% CO2, and 95% humidity. The following day, 10 μL of media containing trametinib or DMSO as a control was added to wells. The final concentration of trametinib in wells was 250 nM. A dose response of a test compound (0.6 μL per well) was added. DMSO (0.6 μL) was added to control wells. The plate was briefly shaken to mix wells and then incubated at 37° C. overnight. The next day, the media was aspirated and cells were washed with Dulbecco's Phosphate Buffered Saline (Gibco). Cells were lysed using MPER lysis buffer (Pierce, Rockford, Ill.) containing Halt Phosphatase and Protease Inhibitors (Pierce, Rockford, Ill.) and Phosphatase inhibitor cocktail 2 (Sigma, St. Louis, Mo.) at 4° C. for 10 minutes with shaking.
Cellular levels of phospho-Serine 318 ATG13 (pATG13) were measured via an ELISA method. Total ATG13 Antibody (Cell Signaling Cat #13273) was used to coat the wells. The plate was incubated at 4° C. overnight and washed with ELISA wash buffer (Biolegend Cat #421601). The wells were then blocked with assay diluent (Biolegend Cat #421203) for 1 hour at room temperature. Plate wells were washed with ELISA wash buffer. Cell lysate was added to wells and incubated at room temperature for 2 hours. Plate wells were washed with ELISA wash buffer. Biotinylated pS318-ATG13 antibody (Rockland Immunochemicals Cat #600-401-C49) was diluted in assay diluent and added to each well and incubated at room temperature for 1 hour. Plate wells were washed with ELISA wash buffer. Streptavidin linked to horseradish peroxidase (Thermo Fisher Cat #21140) was diluted in assay diluent and added to each well and incubated at room temperature for 1 hour. Plate wells were washed with ELISA wash buffer. High sensitivity TMB substrate (Biolegend Cat #421101) was added to each well and incubated at room temperature for 20 minutes. The reaction was stopped with 2N Sulfuric Acid. The plate was analyzed at on a plate reader measuring absorbance at 450 nm and 540 nm (background). Signal was calculated by first subtracting the background absorbance at 540 nm from the absorbance at 450 nm for each well. Next, the background corrected absorbance at 450 nm from blank wells was subtracted from test wells. Data was compared to control wells to determine % ATG13 phosphorylation. GraphPad Prism was used to calculate IC50 values.

T2 sequence (Q5S007 with tags, fused parts or gaps): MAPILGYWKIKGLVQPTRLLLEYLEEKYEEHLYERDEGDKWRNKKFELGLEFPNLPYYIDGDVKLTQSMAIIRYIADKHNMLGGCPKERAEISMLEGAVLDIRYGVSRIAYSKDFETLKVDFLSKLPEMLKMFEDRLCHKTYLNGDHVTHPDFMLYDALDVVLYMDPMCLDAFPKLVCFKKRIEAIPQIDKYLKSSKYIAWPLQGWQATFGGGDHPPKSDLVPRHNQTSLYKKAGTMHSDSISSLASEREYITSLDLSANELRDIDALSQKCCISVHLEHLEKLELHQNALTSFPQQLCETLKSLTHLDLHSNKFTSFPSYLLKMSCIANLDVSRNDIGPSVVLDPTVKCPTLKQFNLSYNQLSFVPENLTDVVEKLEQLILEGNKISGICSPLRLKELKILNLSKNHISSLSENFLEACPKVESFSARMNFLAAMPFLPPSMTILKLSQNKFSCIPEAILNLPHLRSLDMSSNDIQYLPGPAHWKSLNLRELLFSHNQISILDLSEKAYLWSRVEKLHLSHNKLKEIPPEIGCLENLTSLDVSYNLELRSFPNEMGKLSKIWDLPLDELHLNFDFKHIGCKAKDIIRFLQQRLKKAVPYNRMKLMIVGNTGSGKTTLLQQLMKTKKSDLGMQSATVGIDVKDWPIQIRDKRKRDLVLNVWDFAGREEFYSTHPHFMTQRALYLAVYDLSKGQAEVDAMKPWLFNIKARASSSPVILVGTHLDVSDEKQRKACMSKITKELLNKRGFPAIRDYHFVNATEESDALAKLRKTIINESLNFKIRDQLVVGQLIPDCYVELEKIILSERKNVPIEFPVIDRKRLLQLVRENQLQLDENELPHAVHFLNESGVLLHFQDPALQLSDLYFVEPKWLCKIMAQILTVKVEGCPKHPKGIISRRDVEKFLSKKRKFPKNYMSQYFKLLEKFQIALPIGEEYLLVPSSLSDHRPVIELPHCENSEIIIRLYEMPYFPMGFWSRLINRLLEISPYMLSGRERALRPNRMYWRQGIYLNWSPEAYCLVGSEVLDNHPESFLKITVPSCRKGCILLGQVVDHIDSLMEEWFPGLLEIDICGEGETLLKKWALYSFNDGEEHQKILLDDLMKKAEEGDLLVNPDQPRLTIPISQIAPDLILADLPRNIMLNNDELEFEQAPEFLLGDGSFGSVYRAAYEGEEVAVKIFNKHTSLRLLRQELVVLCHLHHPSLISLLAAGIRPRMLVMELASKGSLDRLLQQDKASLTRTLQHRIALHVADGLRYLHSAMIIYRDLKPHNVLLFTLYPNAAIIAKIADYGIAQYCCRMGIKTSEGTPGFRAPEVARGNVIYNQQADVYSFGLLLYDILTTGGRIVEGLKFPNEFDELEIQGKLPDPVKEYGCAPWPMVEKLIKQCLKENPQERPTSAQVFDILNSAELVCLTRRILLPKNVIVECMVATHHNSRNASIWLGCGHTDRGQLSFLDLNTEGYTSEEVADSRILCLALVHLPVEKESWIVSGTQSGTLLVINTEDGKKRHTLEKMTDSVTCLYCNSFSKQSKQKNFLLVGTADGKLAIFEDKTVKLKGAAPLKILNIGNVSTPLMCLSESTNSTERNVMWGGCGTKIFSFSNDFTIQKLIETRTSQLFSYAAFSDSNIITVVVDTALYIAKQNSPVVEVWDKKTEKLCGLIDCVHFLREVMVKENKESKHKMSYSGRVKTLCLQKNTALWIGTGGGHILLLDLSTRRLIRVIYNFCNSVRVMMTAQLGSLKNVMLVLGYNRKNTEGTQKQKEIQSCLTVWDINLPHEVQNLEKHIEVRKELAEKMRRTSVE

| pIC50 [1] | pIC50 [2] | pIC50 [3] | SMILES |
| --- | --- | --- | --- |
| < 6.30 | < 6.22 | – | Cc1nn(CCN2CCOCC2)cc1Nc1ncc(C(F)(F)F)c(NCCCN2CCCCC2=O)n1 [Example 29] |
| < 6.30 | 6.52 to 7.00 | – | Cc1nn(C2CCN(C(C)C)CC2)cc1Nc1ncc(Cl)c(NCCCN2CCCOCC2=O)n1 [Example 110] |
| < 6.30 | < 6.22 | – | Cc1nn(C2CCN(C)CC2)cc1Nc1ncc(C2CC2)c(NCCCN2CCCOCC2=O)n1 [Example 111] |
| 7.00 to 7.60 | – | < 6.22 | CC(C)N1CCC(n2cc(Nc3ncc(C(F)(F)F)c(NCCCN4CCOCC4=O)n3)cn2)CC1 [Example 74] |
| 7.60 to 9.00 | – | 6.52 to 7.00 | [2H]C([2H])([2H])N1CCC(n2cc(Nc3ncc(C(F)(F)F)c(NCCCN4CCCCC4=O)n3)c(C)n2)CC1 [Example 31] |
| 7.60 to 9.00 | – | < 6.22 | O=C1CCCCN1CCCNc1nc(Nc2cnn(C3CCNCC3)c2)ncc1Br [Example 9] |
| 6.30 to 7.00 | – | 6.22 to 6.52 | CCN1CCC(n2cc(Nc3ncc(Cl)c(NCCCN4CCCCC4=O)n3)c(C)n2)CC1 [Example 58] |
| 6.30 to 7.00 | 6.22 to 6.52 | – | CC1(C)CCN(CCCNc2nc(Nc3cnn(C4CCN(C5CC5)CC4)c3)ncc2Br)C1=O [Example 153] |
| 6.30 to 7.00 | 6.22 to 6.52 | – | Cc1nn([C@@H]2CCNC2)cc1Nc1ncc(Br)c(NCCCN2CCCC2=O)n1 [Example 164] |
| 6.30 to 7.00 | 6.22 to 6.52 | – | CC(C)CN1CC(n2cc(Nc3ncc(Br)c(NCCCN4CCCC4=O)n3)cn2)C1 [Example 165] |
| 6.30 to 7.00 | < 6.22 | – | CCc1nn(C2CCNCC2)cc1Nc1ncc(Cl)c(NCCCN2CCCCC2=O)n1 [Example 39] |
| 7.60 to 9.00 | – | 7.00 to 8.00 | CCC(C)N1CCC(n2cc(Nc3ncc(C(F)(F)F)c(NCCCN4CCCCCC4=O)n3)c(C)n2)CC1 (stereo not shown) [Example 94] |
| 6.30 to 7.00 | 6.52 to 7.00 | – | CC1CCC(=O)N1CCCNc1nc(Nc2cnn(C3CCN(C4CC4)CC3)c2)ncc1Cl (stereo not shown) [Example 150] |
| 6.30 to 7.00 | 6.22 to 6.52 | – | Cc1nn(C2CCN(C3COC3)CC2)cc1Nc1ncc(C(F)(F)F)c(NCCCN2CCCCC2=O)n1 [Example 33] |
| < 6.30 | < 6.22 | – | CC(C)CN1CC(n2cc(Nc3ncc(Cl)c(NCCCN4CCCC4=O)n3)cn2)C1 [Example 159] |
| 7.60 to 9.00 | – | 7.00 to 8.00 | O=C1CCCCN1CCCNc1nc(Nc2cnn(C3CCN(CC4CC4)CC3)c2)ncc1Cl [Example 3] |
| 6.30 to 7.00 | < 6.22 | – | Cc1nn(C2CCN(C)CC2)cc1Nc1ncc(Cl)c(NCCCN2CCCCC2=O)n1 [Example 56] |
| < 6.30 | < 6.22 | – | CC1(C)CCC(=O)N1CCCNc1nc(Nc2cnn(C3CCN(C4CC4)CC3)c2)ncc1C1CC1 [Example 69] |

| pIC50 [1] | pIC50 [2] | pIC50 [3] | SMILES |
| --- | --- | --- | --- |
| < 6.30 | < 6.22 | – | Cc1nn(CCCN2CCOCC2)cc1Nc1ncc(Cl)c(NCCCN2CCOCCC2=O)n1 [Example 135] |
| < 6.30 | < 6.22 | – | Cc1nn(C2CN(CC(C)C)C2)cc1Nc1ncc(Cl)c(NCCCN2CCCCC2=O)n1 [Example 38] |
| 7.60 to 9.00 | – | 7.00 to 8.00 | CCN1CCC(n2cc(Nc3ncc(C(F)(F)F)c(NCCCN4CCCCCC4=O)n3)c(C)n2)CC1 [Example 90, 1-(3-((2-((1-(1-ethylpiperidin-4-yl)-3-methyl-1H-pyrazol-4-yl)amino)-5-(trifluoromethyl)pyrimidin-4-yl)amino)propyl)azepan-2-one] |
| 6.30 to 7.00 | < 6.22 | – | CCN1CC[C@H](n2cc(Nc3ncc(C(F)(F)F)c(NCCCN4CCCC4=O)n3)c(C)n2)C1 [Example 168] |
| 6.30 to 7.00 | 6.22 to 6.52 | – | CC(C)CN1CC(n2cc(Nc3ncc(C(F)(F)F)c(NCCCN4CCCC4=O)n3)cn2)C1 [Example 170] |
| 7.60 to 9.00 | – | < 6.22 | Cc1nn(C2CCNCC2)cc1Nc1ncc(I)c(NCCCN2CCCCC2=O)n1 [Example 48] |
| < 6.30 | < 6.22 | – | C[C@@H](CCNc1nc(Nc2cnn(C3CCN(C)CC3)c2)ncc1Cl)N1CCCC1=O [Example 157] |
| 7.00 to 7.60 | – | 6.52 to 7.00 | Cc1nn(CCCN2CCCC2)cc1Nc1ncc(C(F)(F)F)c(NCCCN2CCCCC2=O)n1 [Example 20] |
| 6.30 to 7.00 | < 6.22 | – | Cc1nn(CCN2CCCC2)cc1Nc1ncc(Br)c(NCCCN2CCCCC2=O)n1 [Example 62] |
| 7.00 to 7.60 | – | 6.52 to 7.00 | CC(C)CN1CC(n2cc(Nc3ncc(Br)c(NCCCN4CCCCC4=O)n3)cn2)C1 [Example 17] |
| 7.00 to 7.60 | < 6.22 | – | Cc1nn(C2CN(CC(C)C)C2)cc1Nc1ncc(C(F)(F)F)c(NCCCN2CCCCC2=O)n1 [Example 23] |
| 6.30 to 7.00 | 6.52 to 7.00 | – | Cc1nn(CCN2CCOCC2)cc1Nc1ncc(C(F)(F)F)c(NCCCN2CCCCCC2=O)n1 [Example 98] |
| 7.00 to 7.60 | – | 6.52 to 7.00 | Cc1nn(C2CCN(C)CC2)cc1Nc1ncc(C(F)(F)F)c(NCCCN2CCN(C)C2=O)n1 [Example 152] |
| 7.60 to 9.00 | – | 6.52 to 7.00 | [2H]C([2H])([2H])C([2H])(N1CCC(n2cc(Nc3ncc(C(F)(F)F)c(NCCCN4CCCCC4=O)n3)cn2)CC1)C([2H])([2H])[2H] [Example 13] |
| 6.30 to 7.00 | < 6.22 | – | Cc1nn(C2CCN(C)CC2)cc1Nc1ncc(Cl)c(NCCCN2CCOCCC2=O)n1 [Example 132] |
| 6.30 to 7.00 | < 6.22 | – | Cc1nn(CCN2CCCC2)cc1Nc1ncc(C(F)(F)F)c(NCCCN2CCCCC2=O)n1 [Example 45] |
| < 6.30 | 6.22 to 6.52 | – | C[C@@H](CCNc1nc(Nc2cnn(C3CCN(C4CC4)CC3)c2)ncc1Cl)N1CCCC1=O [Example 156] |
